For one assay, the system named is Pyricularia oryzae. Briefly: microbe, parasite or virus in culture. The class given is cell-based. As to conditions: 168 h, read-out: % control compared to the untreated check (radial growth).
The test system of the next assay is Septoria lycopersici. Briefly: Septoria lycopersici (leaf spot of tomato) in vitro test, radial growth on Potato Dextrose Agar. In kind it is cell-based. As to conditions: 168 h, seven days, 25° C., read-out: % control compared to the untreated check (radial growth).
The next assay deals with Colletotrichum capsici. Description: Colletotrichum capsici (anthracnose) in vitro test, radial growth on Potato Dextrose Agar. In kind it is cell-based. As to conditions: Colletotrichum truncatum, 168 h; 300 ppm; seven days, 25° C.; read-out: % control compared to the untreated check (radial growth).
The next assay concerns Rhizoctonia solani. Briefly: Rhizoctonia solani (rice sheath blight/potato black scurf) in vitro test, radial growth on Potato Dextrose Agar. The class given is cell-based. As to conditions: 168 h, 300 ppm, seven days, 25° C., read-out: % control compared to the untreated check (radial growth).
The test system of a further assay is Alternaria solani. Description: Alternaria solani (early blight of tomato/potato) in vitro test, radial growth on Potato Dextrose Agar. In kind it is cell-based. As to conditions: 168 h, 300 ppm, seven days, 25° C., read-out: % control compared to the untreated check (radial growth).
In a further assay the test system is Botrytis cinera. Description: Greenhouse Botrytis cinera test in tomato, preventive. As to conditions: 24 h, plants sprayed one day before inoculation, read-out: Efficacy (% control), disease severity vs untreated check. In kind it is in vivo.
In another assay the test system is Botrytis cinerea. Briefly: Botrytis cinerea (gray mold) in vitro test, radial growth on Potato Dextrose Agar. In kind it is cell-based. As to conditions: 168 h, 300 ppm, seven days, 22° C., read-out: % (control) compared to the untreated check (radial growth).
In another assay the test system is Fusarium culmorum. Briefly: Fusarium culmorum (foot rot of cereals) in vitro test, radial growth on Potato Dextrose Agar. The class given is cell-based. As to conditions: Fusarium culmorum, 168 h, read-out: % control compared to the untreated check (radial growth).

Each structure is given as a SMILES string.

For `CCN(C)C=Nc1cc(C)c(Cc2cc(Cl)ccc2Cl)cc1Cl` [Compound 166, N′-(2-chloro-4-(2,5-dichlorobenzyl)-5-methylphenyl)-N-ethyl-N-methylformimidamide], the inhibition of growth at 300 ppm with Pyricularia oryzae is above 75%; with Septoria lycopersici it was above 70%; with Colletotrichum capsici it was above 80%; in the assay on Rhizoctonia solani it was above 80%; in the assay on Alternaria solani, above 75%; in the assay with Botrytis cinerea, above 80%. Also, the pest or weed control at 500 ppm in the assay with Botrytis cinera is 70 to 100%.
For the compound `CCN(C)C=Nc1cc(C)c(Cc2cccc(Cl)c2)cc1C` [Compound 11, N′-(4-(3-chlorobenzyl)-2,5-dimethylphenyl)-N-ethyl-N-methylformimidamide], the inhibition of growth at 300 ppm was above 75% in the assay on Pyricularia oryzae; above 80% with Colletotrichum capsici; 75% with Fusarium culmorum; above 80% in the assay on Rhizoctonia solani; above 75% in the assay with Alternaria solani; above 80% in the assay on Botrytis cinerea. Moreover, in the assay with Botrytis cinera, the pest or weed control at 500 ppm was 70 to 100%.
Consider `CCN(C)C=Nc1cc(C)c(Cc2ccc(Cl)c(F)c2)cc1C` [Compound 105, N′-(4-(4-chloro-3-fluorobenzyl)-2,5-dimethylphenyl)-N-ethyl-N-methylformimidamide], for which the inhibition of growth at 300 ppm in the assay with Pyricularia oryzae was above 75%; with Septoria lycopersici it was above 70%; in the assay on Colletotrichum capsici, above 80%; with Fusarium culmorum, 75%; with Rhizoctonia solani it was above 80%; with Alternaria solani, above 75%. For the same compound, in the assay with Botrytis cinerea, the inhibition of growth at 300 ppm is above 80%. Moreover, the pest or weed control at 500 ppm in the assay on Botrytis cinera fell in the range of 70 to 100%.
On to `CCN(C)C=Nc1cc(C)c(Cc2ccc(Br)cc2)cc1C` [Compound 4, N′-(4-(4-bromobenzyl)-2,5-dimethylphenyl)-N-ethyl-N-methylformimidamide], for which the inhibition of growth at 300 ppm with Pyricularia oryzae was above 75%; in the assay on Septoria lycopersici, above 70%; in the assay on Colletotrichum capsici it was above 80%; in the assay on Fusarium culmorum, 75%; in the assay on Rhizoctonia solani, above 80%; in the assay on Alternaria solani, above 75%. The inhibition of growth at 300 ppm in the assay with Botrytis cinerea is above 80%. Further, the pest or weed control at 500 ppm in the assay on Botrytis cinera fell in the range of 70 to 100%.
Turning to `CCN(C)C=Nc1cc(C)c(Cc2cccc(C)c2)cc1C` [Compound 6, N′-(2,5-dimethyl-4-(3-methylbenzyl)phenyl)-N-ethyl-N-methylformimidamide], the inhibition of growth at 300 ppm with Pyricularia oryzae is above 75%; in the assay on Septoria lycopersici it was above 70%; in the assay on Colletotrichum capsici, above 80%; in the assay on Fusarium culmorum it was 75%; with Rhizoctonia solani it was above 80%; in the assay on Alternaria solani, above 75%. For the same compound, the inhibition of growth at 300 ppm with Botrytis cinerea is above 80%. For the same compound, the pest or weed control at 500 ppm in the assay with Botrytis cinera was in the range of 70 to 100%.
Turning to `CCN(C)C=Nc1cc(C)c(Cc2ccccc2[S+](C)[O-])cc1C` (stereo not shown) [Compound 24, N′-(2,5-dimethyl-4-(2-(methylsulfinyl)benzyl)phenyl)-N-ethyl-N-methylformimidamide], the inhibition of growth at 300 ppm is above 75% with Pyricularia oryzae, above 70% with Septoria lycopersici, above 80% with Rhizoctonia solani and above 75% in the assay on Alternaria solani. Further, the pest or weed control at 500 ppm in the assay with Botrytis cinera fell in the range of 70 to 100%.
`CCN(C)C=Nc1cc(C)c(Cc2cc(Cl)cc(Cl)c2)cc1C` [Compound 3, N′-(4-(3,5-dichlorobenzyl)-2,5-dimethylphenyl)-N-ethyl-N-methylformimidamide]: the inhibition of growth at 300 ppm is above 75% in the assay with Pyricularia oryzae; above 70% with Septoria lycopersici; above 80% in the assay on Colletotrichum capsici; above 80% in the assay with Rhizoctonia solani; above 75% with Alternaria solani; above 80% with Botrytis cinerea. Further, in the assay on Botrytis cinera, the pest or weed control at 500 ppm fell in the range of 70 to 100%.
With `CCN(C)C=Nc1cc(C)c(Cc2ccc(Cl)c(Cl)c2)cc1C` [Compound 5, N′-(4-(3,4-dichlorobenzyl)-2,5-dimethylphenyl)-N-ethyl-N-methylformimidamide], the inhibition of growth at 300 ppm is above 75% in the assay with Pyricularia oryzae; above 70% in the assay on Septoria lycopersici; above 80% with Colletotrichum capsici; 75% in the assay with Fusarium culmorum; above 80% in the assay with Rhizoctonia solani; above 75% with Alternaria solani. The inhibition of growth at 300 ppm in the assay on Botrytis cinerea is above 80%. The pest or weed control at 500 ppm in the assay on Botrytis cinera was in the range of 70 to 100%.
For `Cc1cc(N=CN2CCCCC2)c(C)cc1Cc1ccccc1Cl` [Compound 59, N-(4-(2-chlorobenzyl)-2,5-dimethylphenyl)-1-(piperidin-1-yl)methanimine], the inhibition of growth at 300 ppm in the assay with Pyricularia oryzae is above 75%; in the assay on Septoria lycopersici, above 70%; with Colletotrichum capsici, above 80%; with Fusarium culmorum, 75%; in the assay on Rhizoctonia solani it was above 80%; in the assay with Alternaria solani, above 75%. Besides, the inhibition of growth at 300 ppm in the assay with Botrytis cinerea is above 80%. The pest or weed control at 500 ppm in the assay on Botrytis cinera is 70 to 100%.
As to `CCN(C)C=Nc1cc(C)c(Cc2ccccc2OC(F)(F)F)cc1Cl` [Compound 102, N′-(2-chloro-5-methyl-4-(2-(trifluoromethoxy)benzyl)phenyl)-N-ethyl-N-methylformimidamide], the inhibition of growth at 300 ppm in the assay on Pyricularia oryzae is above 75%; in the assay with Septoria lycopersici it was above 70%; in the assay with Colletotrichum capsici, above 80%; in the assay with Rhizoctonia solani, above 80%; in the assay with Alternaria solani, above 75%; in the assay with Botrytis cinerea, above 80%. Further, the pest or weed control at 500 ppm in the assay on Botrytis cinera was in the range of 70 to 100%.
Turning to `CCN(C)C=Nc1cc(C)c(Cc2cccc(C)c2)cc1Cl` [Compound 43, N′-(2-chloro-5-methyl-4-(3-methylbenzyl)phenyl)-N-ethyl-N-methylformimidamide], the inhibition of growth at 300 ppm in the assay on Pyricularia oryzae was above 75%; in the assay on Septoria lycopersici it was above 70%; with Colletotrichum capsici, above 80%; with Fusarium culmorum it was 75%; in the assay on Rhizoctonia solani, above 80%; in the assay with Alternaria solani, above 75%. For the same compound, the inhibition of growth at 300 ppm in the assay with Botrytis cinerea was above 80%. The pest or weed control at 500 ppm in the assay with Botrytis cinera is 70 to 100%.
For the compound `CCN(C)C=Nc1cc(C)c(Cc2cccc(Br)c2)cc1C` [Compound 14, N′-(4-(3-bromobenzyl)-2,5-dimethylphenyl)-N-ethyl-N-methylformimidamide], the inhibition of growth at 300 ppm in the assay on Pyricularia oryzae is above 75%; in the assay on Septoria lycopersici, above 70%; with Colletotrichum capsici, above 80%; in the assay with Fusarium culmorum it was 75%; with Rhizoctonia solani, above 80%; in the assay with Alternaria solani, above 75%. Besides, the inhibition of growth at 300 ppm with Botrytis cinerea was above 80%. Besides, the pest or weed control at 500 ppm in the assay with Botrytis cinera was in the range of 70 to 100%.
Take `CCN(C)C=Nc1cc(C)c(Cc2ccc(C)c(C(F)(F)F)c2)cc1C` [Compound 104, N′-(2,5-dimethyl-4-(4-methyl-3-(trifluoromethyl)benzyl)phenyl)-N-ethyl-N-methylformimidamide]: the inhibition of growth at 300 ppm in the assay with Pyricularia oryzae is above 75%; with Septoria lycopersici, above 70%; in the assay on Colletotrichum capsici it was above 80%; in the assay with Fusarium culmorum it was 75%; with Rhizoctonia solani, above 80%; with Alternaria solani it was above 75%. The inhibition of growth at 300 ppm with Botrytis cinerea was above 80%. The pest or weed control at 500 ppm with Botrytis cinera lay in the range of 70 to 100%.

Source of the values: patent publication US11155517B2, “4-substituted phenylamine derivatives and their use to protect crops by fighting undesired phytopathogenic micoorganisms” (PI INDUSTRIES LTD., priority 2016, dated 2021).
